Calls of active or inactive are those of the source.
Experiments:
[1] = target: T1, Heat shock factor protein 1 (Mus musculus, UniProt P38532); experiment: HSF1 potentiators in luciferase reporter cells, confirmation, cell-based, NIH3T3, luminescence, dose retest (AID 435004); assay type: functional;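 note: stress induced by proteasome inhibitor MG132 added 30 min after compound; luciferase reporter driven by HSF1 response element in NIH3T3 cells; actives raise luminescence as potentiators of the MG132 stress response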
T1 sequence (P38532 whole entry): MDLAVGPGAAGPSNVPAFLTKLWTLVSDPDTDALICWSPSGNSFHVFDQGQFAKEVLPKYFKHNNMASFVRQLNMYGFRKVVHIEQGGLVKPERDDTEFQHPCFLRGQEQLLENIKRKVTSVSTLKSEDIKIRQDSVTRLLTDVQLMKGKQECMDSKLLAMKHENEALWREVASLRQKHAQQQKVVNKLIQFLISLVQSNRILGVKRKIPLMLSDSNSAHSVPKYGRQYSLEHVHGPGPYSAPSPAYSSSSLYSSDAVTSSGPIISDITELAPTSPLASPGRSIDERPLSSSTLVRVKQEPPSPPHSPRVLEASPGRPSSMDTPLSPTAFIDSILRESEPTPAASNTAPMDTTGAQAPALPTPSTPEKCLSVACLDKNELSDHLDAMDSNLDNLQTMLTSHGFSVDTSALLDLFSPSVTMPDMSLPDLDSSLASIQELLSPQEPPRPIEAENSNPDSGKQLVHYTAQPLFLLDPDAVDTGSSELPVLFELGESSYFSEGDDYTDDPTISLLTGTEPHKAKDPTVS

[2] = target: T2, Sentrin-specific protease 7 (Homo sapiens, UniProt Q9BQF6); assay type: functional;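 note: Luminescence-based dose-response confirmation of ultra-high-throughput screening hits, measuring inhibition of SENP7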
T2 sequence (Q9BQF6 whole entry): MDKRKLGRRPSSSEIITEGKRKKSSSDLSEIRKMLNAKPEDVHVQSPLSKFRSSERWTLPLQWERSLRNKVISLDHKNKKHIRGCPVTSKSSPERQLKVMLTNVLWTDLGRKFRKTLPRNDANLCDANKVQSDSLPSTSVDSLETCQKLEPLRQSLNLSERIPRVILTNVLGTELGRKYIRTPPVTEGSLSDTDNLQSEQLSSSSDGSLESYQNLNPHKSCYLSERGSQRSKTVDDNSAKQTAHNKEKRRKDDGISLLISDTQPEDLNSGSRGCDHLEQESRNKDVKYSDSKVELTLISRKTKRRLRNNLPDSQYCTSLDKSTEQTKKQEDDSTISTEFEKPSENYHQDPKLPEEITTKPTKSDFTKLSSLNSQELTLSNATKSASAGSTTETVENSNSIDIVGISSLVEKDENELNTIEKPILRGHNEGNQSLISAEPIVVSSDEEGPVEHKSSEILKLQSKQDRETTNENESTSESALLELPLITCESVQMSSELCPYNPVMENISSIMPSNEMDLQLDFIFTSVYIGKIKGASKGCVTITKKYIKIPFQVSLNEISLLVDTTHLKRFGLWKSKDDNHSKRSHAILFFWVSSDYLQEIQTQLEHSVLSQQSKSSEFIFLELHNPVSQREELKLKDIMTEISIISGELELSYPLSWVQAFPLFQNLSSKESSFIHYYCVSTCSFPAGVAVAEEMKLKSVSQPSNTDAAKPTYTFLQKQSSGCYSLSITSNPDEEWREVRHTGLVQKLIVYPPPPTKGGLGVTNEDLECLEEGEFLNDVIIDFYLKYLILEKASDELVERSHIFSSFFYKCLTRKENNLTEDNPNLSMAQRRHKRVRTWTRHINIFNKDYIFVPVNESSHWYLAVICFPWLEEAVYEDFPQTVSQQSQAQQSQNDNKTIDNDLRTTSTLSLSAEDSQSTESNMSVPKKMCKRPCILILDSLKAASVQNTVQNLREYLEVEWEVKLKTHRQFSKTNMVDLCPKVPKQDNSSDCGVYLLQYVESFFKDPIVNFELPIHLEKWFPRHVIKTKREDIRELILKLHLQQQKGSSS

[3] = target: T3, Sentrin-specific protease 8 (Homo sapiens, UniProt Q96LD8); assay type: functional;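 note: luminescence read-out of SENP8 inhibition, dose-response confirmation following an ultra-high-throughput screen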
T3 sequence (Q96LD8 whole entry): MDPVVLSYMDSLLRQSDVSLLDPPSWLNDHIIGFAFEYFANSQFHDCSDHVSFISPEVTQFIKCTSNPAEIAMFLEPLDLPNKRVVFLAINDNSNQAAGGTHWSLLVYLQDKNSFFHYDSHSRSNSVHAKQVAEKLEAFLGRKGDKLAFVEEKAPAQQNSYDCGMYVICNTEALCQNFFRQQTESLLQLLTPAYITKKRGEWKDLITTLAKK

[4] = target: T4, Oxysterols receptor LXR-beta (Homo sapiens, UniProt P55055); assay type: functional, cell-based;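 note: Cell-based luminescence dose-response assay of agonist activity at LXR, run as a confirmatory counterscreen to a daf-12 agonist screen; HEK293 cells with Gal4-LXR fusion and GAL4-driven luciferase reporter; agonist potency from rising luciferase signal of a Gal4-LXR reporter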
T4 sequence (P55055 whole entry): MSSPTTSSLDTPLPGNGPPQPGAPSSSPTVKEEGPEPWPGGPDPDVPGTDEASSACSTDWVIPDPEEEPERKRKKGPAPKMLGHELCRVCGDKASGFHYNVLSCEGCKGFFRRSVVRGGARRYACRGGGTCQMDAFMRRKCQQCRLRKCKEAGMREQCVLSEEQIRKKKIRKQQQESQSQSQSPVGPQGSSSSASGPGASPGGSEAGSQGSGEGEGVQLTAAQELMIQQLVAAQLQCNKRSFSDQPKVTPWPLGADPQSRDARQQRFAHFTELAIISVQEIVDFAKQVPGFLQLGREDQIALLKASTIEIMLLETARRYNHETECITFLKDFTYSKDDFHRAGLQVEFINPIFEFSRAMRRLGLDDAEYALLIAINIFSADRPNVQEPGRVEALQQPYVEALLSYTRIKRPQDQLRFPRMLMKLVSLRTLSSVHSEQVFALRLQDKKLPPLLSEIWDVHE

[5] = target: T5, Caspase-3 (Homo sapiens, UniProt P42574); assay type: functional;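 note: Dose-response selectivity test against caspase-3 for candidate inhibitors of sentrin-specific proteases (SENPs)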
T5 sequence (P42574 whole entry): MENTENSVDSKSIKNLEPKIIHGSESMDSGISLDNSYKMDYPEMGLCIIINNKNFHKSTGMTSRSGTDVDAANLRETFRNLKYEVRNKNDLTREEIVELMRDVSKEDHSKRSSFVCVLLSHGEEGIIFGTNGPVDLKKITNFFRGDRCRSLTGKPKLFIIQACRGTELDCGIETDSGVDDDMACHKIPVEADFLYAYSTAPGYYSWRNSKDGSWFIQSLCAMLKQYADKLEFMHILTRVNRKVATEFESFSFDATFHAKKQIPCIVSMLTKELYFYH

[6] = cells
[7] = target: T6, Sentrin-specific protease 6 (Homo sapiens, UniProt Q9GZR1); assay type: functional;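 note: Luminescence-based dose-response confirmatory assay of SENP6 inhibition, following up an ultra-high-throughput screen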
T6 sequence (Q9GZR1 whole entry): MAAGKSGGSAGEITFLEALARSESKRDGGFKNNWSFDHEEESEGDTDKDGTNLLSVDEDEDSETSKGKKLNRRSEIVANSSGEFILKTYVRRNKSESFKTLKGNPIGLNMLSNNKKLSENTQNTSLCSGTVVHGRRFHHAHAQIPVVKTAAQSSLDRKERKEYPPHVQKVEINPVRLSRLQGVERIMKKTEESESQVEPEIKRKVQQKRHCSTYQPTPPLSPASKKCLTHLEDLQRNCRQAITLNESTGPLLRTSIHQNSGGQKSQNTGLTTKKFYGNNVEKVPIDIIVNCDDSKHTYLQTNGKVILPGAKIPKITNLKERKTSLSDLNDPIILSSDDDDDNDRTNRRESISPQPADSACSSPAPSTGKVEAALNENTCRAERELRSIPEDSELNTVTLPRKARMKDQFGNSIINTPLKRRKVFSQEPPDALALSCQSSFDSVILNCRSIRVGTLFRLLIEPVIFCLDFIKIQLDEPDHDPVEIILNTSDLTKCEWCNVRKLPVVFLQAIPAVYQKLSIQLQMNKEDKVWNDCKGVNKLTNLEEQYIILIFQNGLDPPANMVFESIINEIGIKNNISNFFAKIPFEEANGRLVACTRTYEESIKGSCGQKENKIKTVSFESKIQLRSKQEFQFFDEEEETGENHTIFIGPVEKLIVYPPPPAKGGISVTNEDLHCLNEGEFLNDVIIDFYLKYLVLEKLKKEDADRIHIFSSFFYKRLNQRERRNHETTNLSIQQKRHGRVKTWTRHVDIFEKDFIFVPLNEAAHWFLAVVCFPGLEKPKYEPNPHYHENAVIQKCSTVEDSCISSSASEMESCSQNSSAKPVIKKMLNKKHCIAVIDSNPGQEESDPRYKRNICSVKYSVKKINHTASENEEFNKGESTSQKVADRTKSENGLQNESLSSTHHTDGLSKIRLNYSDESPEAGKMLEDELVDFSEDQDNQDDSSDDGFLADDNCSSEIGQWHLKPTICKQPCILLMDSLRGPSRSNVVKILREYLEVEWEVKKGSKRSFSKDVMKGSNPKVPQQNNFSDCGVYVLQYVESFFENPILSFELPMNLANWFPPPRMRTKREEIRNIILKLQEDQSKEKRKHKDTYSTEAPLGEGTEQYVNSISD

[8] = target: Transthyretin (Homo sapiens, UniProt P02766); experiment: Luminescence-based cell-based high throughput dose response assay to identify activators of Transthyretin (TTR) transcription.; assay type: functional
[9] = inhibitors of PGC1a acetylation in cells, dose response, cell-based, cherry-picked samples (AID 720514); assay type: functional;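 note: potency may reflect raised or lowered acetylation signal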
[10] = target: Paired box protein Pax-8 (Homo sapiens, UniProt Q06710); experiment: inhibitors of PAX8-driven TPO luciferase reporter, dose response, RMG-I cells, cherry-pick (AID 687027); assay type: functional, cell-based;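 note: luciferase reporter driven by Pax8 target thyroperoxidase promoter measured by SteadyGlo luminescence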
Chain of Paired box protein Pax-8 (Q06710 whole entry, the tested form may be a part): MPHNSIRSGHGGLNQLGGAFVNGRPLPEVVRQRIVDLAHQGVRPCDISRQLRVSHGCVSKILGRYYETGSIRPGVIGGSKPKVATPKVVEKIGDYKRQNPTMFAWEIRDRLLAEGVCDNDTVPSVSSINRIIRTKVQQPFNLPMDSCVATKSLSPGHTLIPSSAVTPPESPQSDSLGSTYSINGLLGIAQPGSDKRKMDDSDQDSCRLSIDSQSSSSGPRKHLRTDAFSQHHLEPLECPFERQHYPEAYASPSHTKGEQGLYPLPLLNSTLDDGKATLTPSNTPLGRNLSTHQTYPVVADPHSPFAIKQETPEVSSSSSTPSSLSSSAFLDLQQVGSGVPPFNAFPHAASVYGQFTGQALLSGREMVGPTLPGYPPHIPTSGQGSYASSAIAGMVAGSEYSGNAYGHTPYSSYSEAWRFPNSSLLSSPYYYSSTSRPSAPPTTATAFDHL

[11] = inhibitors of HIV Env-driven cell fusion, dose response, cherry-pick (AID 652057); assay type: functional, cell-based
[12] = P. falciparum Dd2 growth inhibitors, dose response, SYBR Green, cherry-picked samples (AID 1159567); assay type: functional, cell-based
[13] = P. falciparum ATP4 D1247Y mutant growth inhibitors, dose response, NITD609-resistant line, SYBR Green, dry powder (AID 1159571); assay type: functional, cell-based;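 note: parasites synchronized at ring stage by sorbitol before testing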
[14] = P. falciparum 3D7-ScDHODH growth inhibitors, dose response, SYBR Green, dry powder samples (AID 1159570); assay type: functional, cell-based;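 note: parasite growth measured after 72 hours of compound exposure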
[15] = P. falciparum Dd2 growth inhibitors, dose response, SYBR Green, dry powder samples (AID 1159566); assay type: functional, cell-based;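 note: potency for growth inhibition with lower SYBR green DNA signal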
[16] = inhibitors of clade B AD8 Env fusion, dose response, cell-based, cherry-pick (AID 652062); assay type: functional;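 note: luciferase signal from cell-cell fusion driven by HIV-1 clade B AD8 Env; potency is for inhibitors of fusion seen as a drop in luminescence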
[17] = ZM109 Env clade C HIV-1 fusion inhibitors, dose response, HeLa effector, CEM target cells, luciferase, cherry-pick (AID 652058); assay type: functional, cell-based
[18] = system: HeLa; experiment: HeLa cell cytotoxicity, dose response, cytotoxicity control, ATP luminescence, cherry-pick samples (AID 687004); assay type: functional, cell-based; conditions: Homo sapiens
[19] = Fluorescence-based cell-based high throughput dose response assay for inhibitors of the interaction of nucleotide-binding oligomerization domain containing 2 (NOD2) and the receptor-interacting serine-threonine kinase 2 (RIPK2).; assay type: functional; conditions: Homo sapiens
[20] = Shn3 3'UTR reporter inhibitors, dose response, cell-based, Clone20 osteoblasts, firefly luciferase, cherry-picked (AID 624132); assay type: functional;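 note: firefly luciferase luminescence from reporter carrying the Shn3 3'UTR in osteoblasts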
[21] = control 3'UTR Renilla luciferase suppression, dose response, counter-screen for Shn3 inhibitor project, cell-based, Clone20-Shn3RL, cherry-picked (AID 624133); assay type: functional
[22] = target: Heat shock protein HSP 90-alpha (Homo sapiens, UniProt P07900); assay type: functional, organism-based

c1ccc(N2CC3CCc4ccccc4C3=N2)cc1 (stereo not drawn)
EC50 [1]: 114 µM (active) | IC50 [2]: 5.67 µM (active) | IC50 [3]: 58.4 µM (active) | EC50 [4]: > 67.5 µM (inactive) | IC50 [5]: 23.3 µM (active) | EC50 [6]: > 67.5 µM (inactive) | IC50 [7]: 30.4 µM (active)

CN(Cc1ccccc1)C(=O)c1[nH]cnc1C(=O)NCC(=O)OC(C)(C)C
EC50 [8]: > 167 µM (inactive)

Cc1ccc(S(=O)(=O)N(C)C[C@@H]2Oc3cc(C#Cc4ccncc4)ccc3S(=O)(=O)N([C@@H](C)CO)C[C@H]2C)cc1
AC50 [9]: 2.39 µM (active) | AC50 [10]: 2.51 µM (active)

COc1ccc(S(=O)(=O)Nc2ccc3c(c2)CC(=O)N([C@@H](C)CO)C[C@H](C)[C@H](CN(C)S(=O)(=O)c2ccc(C)cc2)O3)cc1
AC50 [11]: 3.56 µM (active) | AC50 [12]: 1.7 µM (active) | AC50 [13]: 0.553 µM (active) | AC50 [14]: 0.928 µM (active) | AC50 [15]: 0.563 µM (active) | AC50 [16]: 33.9 µM (active) | AC50 [17]: 23.8 µM (active)

CC(=O)OC1(C)CC(C)C(=O)C(C(O)CC2CC(=O)NC(=O)C2)C1 (stereo not drawn)
AC50 [18]: 14.5 µM (active) | AC50 [9]: < 0.16 µM (active) | IC50 [19]: 49.8 µM (inactive) | AC50 [20]: < 0.26 µM (active) | AC50 [21]: < 0.26 µM (active) | AC50 [22]: < 0.195 µM (active)
